The source of these data is patent US5369120A, “Pharmaceutical composition of 7-((substituted)amino-8-((substituted)carbonyl)-(methylamino)-1-oxasp iro(4,5)decanes and L-dopa” (Warner-Lambert Company, priority 1993, dated 1994).

In this assay the test system is rats rendered Parkinsonian by injection of reserpine. The experiment in a line: locomotor activity and rigidity in reserpine-treated Parkinsonian rats. The class given is in vivo, rat. As to conditions: reserpine (4 mg/kg) rats; L-DOPA 80 mg/kg intraperitoneal, subthreshold dose.

In the case of `N[C@@H](Cc1ccc(O)c(O)c1)C(=O)O` [L-DOPA, 3-(3,4-dihydroxyphenyl)L-alanine], the Locomotor scores result was “very low locomotor scores”.
